{"source": "patent US12495798B2", "about": "“Nicotinamide compound and herbicidal composition comprising compound” (KOREA RESEARCH INSTITUTE OF CHEMICAL TECHNOLOGY, priority 2019, dated 2025)", "type_in_all_cases": "in vivo", "key": {"cotton [1]": {"system": "cotton", "assay": "Phytotoxicity test for field crops (soil treatment test)", "set-up": "key: 0 (no harm); 9 (complete withered)", "summary_of_the_method": "(§1)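 Crops sown in fertilized sterile soil (pH 6.1; clay 21%, silt 17%, sand 52%); soil spray 1 d later, 19˜300 g a.i./ha, 100 ml/m^2; greenhouse 30±5° C, 14/10 h; visual phytotoxicity 0–9 at 10 and 20 DAT vs untreated.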"}, "wheat [2]": {"system": "wheat", "assay": "Phytotoxicity test for field crops (soil treatment test)", "set-up": "key: 0 (no harm); 9 (complete withered)", "summary_of_the_method": "as §1"}, "soybean [3]": {"system": "soybean", "assay": "Phytotoxicity test for field crops (soil treatment test)", "set-up": "key: 0 (no harm); 9 (complete withered)", "summary_of_the_method": "as §1"}, "corn [4]": {"system": "corn", "assay": "Phytotoxicity test for field crops (soil treatment test)", "set-up": "key: 0 (no harm); 9 (complete withered)", "summary_of_the_method": "as §1"}, "rice [5]": {"system": "rice", "assay": "Phytotoxicity test for field crops (soil treatment test)", "set-up": "key: 0 (no harm); 9 (complete withered)", "summary_of_the_method": "as §1"}, "quack grass": {"system": "quack grass", "assay": "Herbicidal activity test against upland field weeds (soil treatment test)", "set-up": "key to Soil treatment herbicidal activity, quack grass: 0 (no control); 100 (complete control)", "conditions": "50 g ai/ha, scale 0 (no control) to 100 (complete control)", "summary_of_the_method": "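Pre-emergence soil surface spray, day after sowing, into sandy loam pots with fertilizer; compounds at 50 or 75 g a.i./ha in 50% acetone, 0.1% Tween-20. Greenhouse at 30±5 °C, 14/10 h light/dark; visual control rated 0–100 against untreated after 14 days (21 if needed).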"}, "cotton [6]": {"system": "cotton", "assay": "Phytotoxicity test for upland field crops (foliar treatment test)", "set-up": "key: 0 (no harm); 9 (complete withered)", "summary_of_the_method": "(§2)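 Crops grown in greenhouse pots (30±5 °C, 14/10 h light) were foliar-sprayed with compound at 19–300 g a.i./ha in 33% acetone/0.1% Tween-20. Phytotoxicity scored 0 (no harm) to 9 (complete withering) versus untreated control at 7 and 14 days, 21 if needed.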"}, "wheat [7]": {"system": "wheat", "assay": "Phytotoxicity test for upland field crops (foliar treatment test)", "set-up": "key: 0 (no harm); 9 (complete withered)", "summary_of_the_method": "as §2"}, "soybean [8]": {"system": "soybean", "assay": "Phytotoxicity test for upland field crops (foliar treatment test)", "set-up": "key: 0 (no harm); 9 (complete withered)", "summary_of_the_method": "as §2"}, "corn [9]": {"system": "corn", "assay": "Phytotoxicity test for upland field crops (foliar treatment test)", "set-up": "key: 0 (no harm); 9 (complete withered)", "summary_of_the_method": "as §2"}, "rice [10]": {"system": "rice", "assay": "Phytotoxicity test for upland field crops (foliar treatment test)", "set-up": "key: 0 (no harm); 9 (complete withered)", "summary_of_the_method": "as §2"}}}
{"smiles": "Cn1nc(COCc2nc(C(F)(F)F)ccc2C(=O)Nc2nnnn2C)nc1Cl", "note": "[Compound No. 2-135, 2-(((5-chloro-1-methyl-1H-1,2,4-triazol-3-yl)methoxy)methyl)-N-(1-methyl-1H-tetrazol-5-yl)-6-(trifluoromethyl)nicotinamide]", "values": [{"measurement": "Soil treatment phytotoxicity, Cotton", "setting": "cotton [1]; 50 g ai/ha, Cotton (10 days after treatment)", "result": 1}, {"measurement": "Soil treatment phytotoxicity, Cotton", "setting": "cotton [1]; 50 g ai/ha, Cotton (20 days after treatment)", "result": 3}, {"measurement": "Soil treatment phytotoxicity, Cotton", "setting": "cotton [1]; 100 g ai/ha, Cotton (10 days after treatment)", "result": 1}, {"measurement": "Soil treatment phytotoxicity, Cotton", "setting": "cotton [1]; 100 g ai/ha, Cotton (20 days after treatment)", "result": 4}, {"measurement": "Soil treatment phytotoxicity, Wheat", "setting": "wheat [2]; 50 g ai/ha, Wheat (10 days after treatment)", "result": 0}, {"measurement": "Soil treatment phytotoxicity, Wheat", "setting": "wheat [2]; 50 g ai/ha, Wheat (20 days after treatment)", "result": 0}, {"measurement": "Soil treatment phytotoxicity, Wheat", "setting": "wheat [2]; 100 g ai/ha, Wheat (10 days after treatment)", "result": 0}, {"measurement": "Soil treatment phytotoxicity, Wheat", "setting": "wheat [2]; 100 g ai/ha, Wheat (20 days after treatment)", "result": 0}, {"measurement": "Soil treatment phytotoxicity, Soybean", "setting": "soybean [3]; 50 g ai/ha, Soybean (10 days after treatment)", "result": 0}, {"measurement": "Soil treatment phytotoxicity, Soybean", "setting": "soybean [3]; 50 g ai/ha, Soybean (20 days after treatment)", "result": 0}, {"measurement": "Soil treatment phytotoxicity, Soybean", "setting": "soybean [3]; 100 g ai/ha, Soybean (10 days after treatment)", "result": 2}, {"measurement": "Soil treatment phytotoxicity, Soybean", "setting": "soybean [3]; 100 g ai/ha, Soybean (20 days after treatment)", "result": 3}, {"measurement": "Soil treatment phytotoxicity, Corn", "setting": "corn [4]; 50 g ai/ha, Corn (10 days after treatment)", "result": 0}, {"measurement": "Soil treatment phytotoxicity, Corn", "setting": "corn [4]; 50 g ai/ha, Corn (20 days after treatment)", "result": 0}, {"measurement": "Soil treatment phytotoxicity, Corn", "setting": "corn [4]; 100 g ai/ha, Corn (10 days after treatment)", "result": 0}, {"measurement": "Soil treatment phytotoxicity, Corn", "setting": "corn [4]; 100 g ai/ha, Corn (20 days after treatment)", "result": 0}, {"measurement": "Soil treatment phytotoxicity, Rice", "setting": "rice [5]; 50 g ai/ha, Rice (10 days after treatment)", "result": 6}, {"measurement": "Soil treatment phytotoxicity, Rice", "setting": "rice [5]; 50 g ai/ha, Rice (20 days after treatment)", "result": 8}, {"measurement": "Soil treatment phytotoxicity, Rice", "setting": "rice [5]; 100 g ai/ha, Rice (10 days after treatment)", "result": 7}, {"measurement": "Soil treatment phytotoxicity, Rice", "setting": "rice [5]; 100 g ai/ha, Rice (20 days after treatment)", "result": 8}, {"measurement": "Soil treatment herbicidal activity, quack grass", "setting": "quack grass", "result": 0}, {"measurement": "Foliar treatment phytotoxicity, Cotton", "setting": "cotton [6]; 50 g ai/ha, Cotton (7 days after treatment)", "result": 3}, {"measurement": "Foliar treatment phytotoxicity, Cotton", "setting": "cotton [6]; 50 g ai/ha, Cotton (14 days after treatment)", "result": 7}, {"measurement": "Foliar treatment phytotoxicity, Cotton", "setting": "cotton [6]; 100 g ai/ha, Cotton (7 days after treatment)", "result": 3}, {"measurement": "Foliar treatment phytotoxicity, Cotton", "setting": "cotton [6]; 100 g ai/ha, Cotton (14 days after treatment)", "result": 7}, {"measurement": "Foliar treatment phytotoxicity, Wheat", "setting": "wheat [7]; 50 g ai/ha, Wheat (7 days after treatment)", "result": 0}, {"measurement": "Foliar treatment phytotoxicity, Wheat", "setting": "wheat [7]; 50 g ai/ha, Wheat (14 days after treatment)", "result": 0}, {"measurement": "Foliar treatment phytotoxicity, Wheat", "setting": "wheat [7]; 100 g ai/ha, Wheat (7 days after treatment)", "result": 0}, {"measurement": "Foliar treatment phytotoxicity, Wheat", "setting": "wheat [7]; 100 g ai/ha, Wheat (14 days after treatment)", "result": 0}, {"measurement": "Foliar treatment phytotoxicity, Soybean", "setting": "soybean [8]; 50 g ai/ha, Soybean (7 days after treatment)", "result": 4}, {"measurement": "Foliar treatment phytotoxicity, Soybean", "setting": "soybean [8]; 50 g ai/ha, Soybean (14 days after treatment)", "result": 6}, {"measurement": "Foliar treatment phytotoxicity, Soybean", "setting": "soybean [8]; 100 g ai/ha, Soybean (7 days after treatment)", "result": 4}, {"measurement": "Foliar treatment phytotoxicity, Soybean", "setting": "soybean [8]; 100 g ai/ha, Soybean (14 days after treatment)", "result": 7}, {"measurement": "Foliar treatment phytotoxicity, Corn", "setting": "corn [9]; 50 g ai/ha, Corn (7 days after treatment)", "result": 0}, {"measurement": "Foliar treatment phytotoxicity, Corn", "setting": "corn [9]; 50 g ai/ha, Corn (14 days after treatment)", "result": 0}, {"measurement": "Foliar treatment phytotoxicity, Corn", "setting": "corn [9]; 100 g ai/ha, Corn (7 days after treatment)", "result": 0}, {"measurement": "Foliar treatment phytotoxicity, Corn", "setting": "corn [9]; 100 g ai/ha, Corn (14 days after treatment)", "result": 0}, {"measurement": "Foliar treatment phytotoxicity, Rice", "setting": "rice [10]; 50 g ai/ha, Rice (7 days after treatment)", "result": 3}, {"measurement": "Foliar treatment phytotoxicity, Rice", "setting": "rice [10]; 50 g ai/ha, Rice (14 days after treatment)", "result": 6}, {"measurement": "Foliar treatment phytotoxicity, Rice", "setting": "rice [10]; 100 g ai/ha, Rice (7 days after treatment)", "result": 4}, {"measurement": "Foliar treatment phytotoxicity, Rice", "setting": "rice [10]; 100 g ai/ha, Rice (14 days after treatment)", "result": 6}]}
